In assay [1] the target is T1, Adrenergic receptor alpha-2 (Rattus norvegicus, UniProt P22086+P19328+P22909).
T1 sequence (P22086 whole entry): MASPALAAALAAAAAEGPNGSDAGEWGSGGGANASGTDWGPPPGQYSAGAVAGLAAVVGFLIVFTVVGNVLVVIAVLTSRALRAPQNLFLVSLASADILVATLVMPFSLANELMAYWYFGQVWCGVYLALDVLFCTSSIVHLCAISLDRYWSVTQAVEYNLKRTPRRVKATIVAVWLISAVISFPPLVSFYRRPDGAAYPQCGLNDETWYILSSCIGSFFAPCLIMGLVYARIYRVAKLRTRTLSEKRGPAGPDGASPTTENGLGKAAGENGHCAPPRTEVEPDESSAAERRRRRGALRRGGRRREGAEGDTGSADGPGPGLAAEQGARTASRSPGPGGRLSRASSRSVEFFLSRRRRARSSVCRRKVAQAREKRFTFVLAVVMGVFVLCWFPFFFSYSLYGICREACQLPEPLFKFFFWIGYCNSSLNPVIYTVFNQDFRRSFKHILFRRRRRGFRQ
T1 sequence (P19328 whole entry): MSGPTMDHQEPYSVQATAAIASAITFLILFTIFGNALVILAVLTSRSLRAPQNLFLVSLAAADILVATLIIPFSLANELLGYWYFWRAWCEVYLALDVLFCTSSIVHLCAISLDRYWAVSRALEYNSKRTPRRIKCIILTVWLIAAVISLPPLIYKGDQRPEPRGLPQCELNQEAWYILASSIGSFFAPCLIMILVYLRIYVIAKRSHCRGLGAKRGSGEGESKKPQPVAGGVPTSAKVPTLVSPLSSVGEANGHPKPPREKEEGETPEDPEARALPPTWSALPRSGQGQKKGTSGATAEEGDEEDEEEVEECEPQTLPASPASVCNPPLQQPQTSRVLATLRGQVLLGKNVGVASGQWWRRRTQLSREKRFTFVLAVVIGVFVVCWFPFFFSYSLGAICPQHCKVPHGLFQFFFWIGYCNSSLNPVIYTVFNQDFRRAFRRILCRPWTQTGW
T1 sequence (P22909 whole entry): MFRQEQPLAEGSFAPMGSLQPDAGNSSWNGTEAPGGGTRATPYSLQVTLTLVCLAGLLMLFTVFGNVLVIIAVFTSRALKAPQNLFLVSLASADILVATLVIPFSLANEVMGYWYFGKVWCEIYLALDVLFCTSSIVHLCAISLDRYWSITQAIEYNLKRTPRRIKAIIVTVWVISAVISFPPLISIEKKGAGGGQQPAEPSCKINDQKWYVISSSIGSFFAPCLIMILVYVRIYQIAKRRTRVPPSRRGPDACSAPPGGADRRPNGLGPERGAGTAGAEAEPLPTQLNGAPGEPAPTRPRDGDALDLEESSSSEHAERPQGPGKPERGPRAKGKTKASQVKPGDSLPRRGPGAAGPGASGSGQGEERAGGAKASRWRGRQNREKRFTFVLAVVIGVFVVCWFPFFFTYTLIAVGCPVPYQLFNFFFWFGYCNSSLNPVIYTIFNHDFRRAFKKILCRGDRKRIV
As to the kind of experiment: Ability to inhibit [3H]yohimbine binding to alpha-2 adrenergic receptor of rat cerebral cortex preparation. The format is tissue-based.

In assay [2] the target is T2, Adrenergic receptor alpha-1 (Rattus norvegicus, UniProt P15823+P23944+P43140).
T2 sequence (P15823 whole entry): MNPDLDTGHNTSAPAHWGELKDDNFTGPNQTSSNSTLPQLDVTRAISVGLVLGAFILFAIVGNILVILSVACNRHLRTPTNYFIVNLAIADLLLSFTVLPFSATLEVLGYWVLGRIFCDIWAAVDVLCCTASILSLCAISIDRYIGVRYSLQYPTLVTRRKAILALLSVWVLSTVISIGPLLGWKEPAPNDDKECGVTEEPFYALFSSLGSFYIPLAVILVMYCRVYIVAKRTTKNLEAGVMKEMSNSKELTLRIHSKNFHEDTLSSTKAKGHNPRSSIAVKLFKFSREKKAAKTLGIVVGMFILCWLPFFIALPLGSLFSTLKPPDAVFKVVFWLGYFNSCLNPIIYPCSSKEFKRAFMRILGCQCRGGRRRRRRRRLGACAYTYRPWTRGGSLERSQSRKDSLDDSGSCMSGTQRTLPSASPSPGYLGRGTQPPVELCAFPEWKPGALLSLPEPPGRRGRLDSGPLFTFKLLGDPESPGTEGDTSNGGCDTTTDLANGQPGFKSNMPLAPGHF
T2 sequence (P23944 whole entry): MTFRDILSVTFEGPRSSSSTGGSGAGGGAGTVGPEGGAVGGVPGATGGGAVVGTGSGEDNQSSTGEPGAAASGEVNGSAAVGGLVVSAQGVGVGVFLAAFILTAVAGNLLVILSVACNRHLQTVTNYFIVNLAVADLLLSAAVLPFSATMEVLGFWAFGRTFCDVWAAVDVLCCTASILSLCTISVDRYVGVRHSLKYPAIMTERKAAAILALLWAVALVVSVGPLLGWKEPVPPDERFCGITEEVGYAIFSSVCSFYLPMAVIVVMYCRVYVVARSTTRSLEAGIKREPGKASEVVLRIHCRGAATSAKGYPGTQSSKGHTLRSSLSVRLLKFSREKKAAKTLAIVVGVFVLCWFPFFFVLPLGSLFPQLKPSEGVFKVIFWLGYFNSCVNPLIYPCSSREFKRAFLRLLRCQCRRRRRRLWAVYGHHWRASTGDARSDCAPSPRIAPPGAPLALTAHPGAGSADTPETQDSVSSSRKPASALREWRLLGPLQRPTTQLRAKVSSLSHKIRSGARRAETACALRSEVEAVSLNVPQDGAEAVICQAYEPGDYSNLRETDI
T2 sequence (P43140 whole entry): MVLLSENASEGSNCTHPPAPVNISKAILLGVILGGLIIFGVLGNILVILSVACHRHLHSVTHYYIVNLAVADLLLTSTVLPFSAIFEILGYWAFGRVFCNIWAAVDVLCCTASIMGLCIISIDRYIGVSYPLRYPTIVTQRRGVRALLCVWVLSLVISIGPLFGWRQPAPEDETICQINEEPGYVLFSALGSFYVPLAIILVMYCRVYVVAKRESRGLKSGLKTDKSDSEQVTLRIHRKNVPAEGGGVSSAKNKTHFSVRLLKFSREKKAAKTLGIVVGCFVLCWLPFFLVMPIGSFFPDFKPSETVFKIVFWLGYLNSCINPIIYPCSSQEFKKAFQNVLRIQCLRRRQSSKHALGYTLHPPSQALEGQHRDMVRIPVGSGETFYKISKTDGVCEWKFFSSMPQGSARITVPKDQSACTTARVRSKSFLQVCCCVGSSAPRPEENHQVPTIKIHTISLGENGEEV
As to the kind of experiment: Alpha-1-adrenolytic activity was assessed in vitro from the ability to inhibit norepinephrine-induced contraction of rat aorta preparation.

Molecules are shown by their SMILES.

As for `CO/C(O)=C1\C(C)=NC(C)=C(C(=O)OCCN2CCC(n3c(O)nc4ccccc43)CC2)C1c1cccc([N+](=O)[O-])c1` (configuration not stated), the values for the half-maximal inhibitory concentration (IC50) in assay [1] and in assay [2] were 1600 nM and 0.00001 M, respectively.
On to `CO/C(O)=C1\C(C)=NC(C)=C(C(=O)OCCN(C)CC2COc3ccccc3O2)C1c1ccccc1[N+](=O)[O-]` (configuration not stated), for which the half-maximal inhibitory concentration (IC50) is 270 nM in assay [1] and greater than 0.00001 M in assay [2].
On to `CO/C(O)=C1\C(C)=NC(C)=C(C(=O)OCCN(C)C(C)COc2ccccc2)C1c1cccc([N+](=O)[O-])c1.Cl` (configuration not stated), for which the values for the IC50 in assay [1] and in assay [2] were 480 nM and 0.00007 M, respectively.
Take `CC1=NC(C)=C(C(=O)OC(C)CN(C)CC2COc3ccccc3O2)C(c2cccc([N+](=O)[O-])c2)/C1=C(\O)OC(C)C.Cl` (configuration not stated): in assay [2], the IC50 is given as >> 0.00003 M.
Consider `CO/C(O)=C1\C(C)=NC(C)=C(C(=O)OC(C)CN(C)CC2COc3ccccc3O2)C1c1cccc([N+](=O)[O-])c1.Cl` (configuration not stated), for which the IC50 was 470 nM in assay [1] and >> 0.0001 M in assay [2].
`CO/C(O)=C1\C(C)=NC(C)=C(C(=O)OCCN(C)C(c2ccccc2)C2CCCCC2)C1c1cccc([N+](=O)[O-])c1.Cl` (configuration not stated): the 50% inhibitory concentration (IC50) in assay [1] was 16000 nM; in assay [2], greater than 0.0001 M.
For `CO/C(O)=C1\C(C)=NC(C)=C(C(=O)OCCN(C)CC2COc3ccccc3O2)C1c1cccc([N+](=O)[O-])c1.Cl` (configuration not stated), the IC50 in assay [1] was 480 nM; in assay [2], 0.00004 M.
Regarding `COC(=O)C1=C(C)NC(C)=C(C(=O)OCCN(C)C[C@H]2COc3ccccc3O2)[C@@H]1c1cccc([N+](=O)[O-])c1.Cl` (stereo in doubt; 6a), the IC50 in assay [1] was determined as 4000 nM; in assay [2] it was 0.00001 M.
Take `COC(=O)C1=C(C)NC(C)=C(C(=O)OCCN(C)C[C@H]2COc3ccccc3O2)[C@@H]1c1cccc([N+](=O)[O-])c1.Cl` (stereo in doubt; 6b): the figures for the IC50 in assay [1] and in assay [2] were 140 nM and greater than 0.00003 M, respectively.

As usually defined, the IC50 is the concentration at which inhibition is half-maximal.

Source of the values: ChEMBL document CHEMBL1124620, “New 1,4-dihydropyridine derivatives combining calcium antagonism and alpha-adrenolytic properties” (J Med Chem, 1989).
